Measurements taken from ChEMBL document CHEMBL1201862, “PubChem BioAssay data set” (2004).
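Where inhibition never reached the appropriate level, the endpoint shown equals the highest concentration tested. Otherwise, values were interpolated linearly from a five-concentration, 48-hour dose response in 96-well plates. GI50 is the concentration that inhibits growth by half.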 Active and inactive are the calls of the source. No stated cut-off is given here; in the data, active = GI50 up to about 1.1 µM and inactive = higher.

Legend:
Assay in all cases: NCI tumour cell line growth inhibition, 48 h
EKVX = test system: EKVX
HCC 2998 = test system: HCC 2998
HL-60 = test system: HL-60
HOP-92 = test system: HOP-92
K562 = test system: K562
M14 = test system: M14
MDA-MB-231 = test system: MDA-MB-231
Malme-3M = test system: Malme-3M
NCI-H226 = test system: NCI-H226
NCI-H460 = test system: NCI-H460
NCI-H522 = test system: NCI-H522
OVCAR-5 = test system: OVCAR-5
RPMI-8226 = test system: RPMI-8226
RXF 393 = test system: RXF 393
SF-295 = test system: SF-295
SF-539 = test system: SF-539
SNB-19 = test system: SNB-19
SW-620 = test system: SW-620
TK-10 = test system: TK-10
SR = test system: SR

| SMILES | GI50 (EKVX) | GI50 (HCC 2998) | GI50 (HL-60) | GI50 (HOP-92) | GI50 (K562) | GI50 (M14) | GI50 (MDA-MB-231) | GI50 (Malme-3M) | GI50 (NCI-H226) | GI50 (NCI-H460) | GI50 (NCI-H522) | GI50 (OVCAR-5) | GI50 (RPMI-8226) | GI50 (RXF 393) | GI50 (SF-295) | GI50 (SF-539) | GI50 (SNB-19) | GI50 (SW-620) | GI50 (TK-10) | GI50 (SR) |
| --- | --- | --- | --- | --- | --- | --- | --- | --- | --- | --- | --- | --- | --- | --- | --- | --- | --- | --- | --- | --- |
| CCOC(=O)/C1=C(\C)N(c2ccc(C)cc2)C(=O)c2ccccc2C(=O)c2c(O)ccc(O)c21 | 24.8 µM (inactive) | 16.5 µM (inactive) | 19.1 µM (inactive) | 22.7 µM (inactive) | 20.6 µM (inactive) | 19.1 µM (inactive) | 14.1 µM (inactive) | 18.1 µM (inactive) | 42.4 µM (inactive) | 23.2 µM (inactive) | 18.7 µM (inactive) | 30.2 µM (inactive) | 11.7 µM (inactive) | 23.2 µM (inactive) | 16.9 µM (inactive) | 26.5 µM (inactive) | 47.5 µM (inactive) | 27.6 µM (inactive) | 26.2 µM (inactive) | – |
| Cc1c2ccccc2c(C)c2c3c(ccc12)C(=O)C=CC3=O | 30.2 µM (inactive) | 35.3 µM (inactive) | 2.15 µM (inactive) | 15.1 µM (inactive) | 11.3 µM (inactive) | 30 µM (inactive) | – | 29 µM (inactive) | > 89.5 µM (inactive) | > 67.6 µM (inactive) | 13.6 µM (inactive) | > 100 µM (inactive) | 29.9 µM (inactive) | 13 µM (inactive) | 24.7 µM (inactive) | 35.6 µM (inactive) | > 100 µM (inactive) | 21.6 µM (inactive) | 19.2 µM (inactive) | 8.36 µM (inactive) |
| Cc1nc2c(O)nc3ccccc3c2o1 | 48.9 µM (inactive) | > 100 µM (inactive) | > 100 µM (inactive) | > 100 µM (inactive) | – | > 100 µM (inactive) | > 100 µM (inactive) | > 100 µM (inactive) | > 100 µM (inactive) | > 100 µM (inactive) | – | > 100 µM (inactive) | > 100 µM (inactive) | > 100 µM (inactive) | > 100 µM (inactive) | > 100 µM (inactive) | > 100 µM (inactive) | > 100 µM (inactive) | > 100 µM (inactive) | – |
| N#CCCN(CCC#N)c1ccc(C(=N/c2ccc(Cl)cc2)/N=N/c2ccccc2)cc1 | 99.5 µM (inactive) | 26.6 µM (inactive) | – | > 100 µM (inactive) | > 100 µM (inactive) | > 100 µM (inactive) | > 100 µM (inactive) | – | > 100 µM (inactive) | 55.1 µM (inactive) | 36.6 µM (inactive) | > 100 µM (inactive) | > 100 µM (inactive) | 16.9 µM (inactive) | 10.9 µM (inactive) | > 100 µM (inactive) | > 100 µM (inactive) | > 100 µM (inactive) | 88.5 µM (inactive) | – |
| CCN(CC)CC[n+]1ccc2c(C)c3[nH]c4ccccc4c3c(C)c2c1 | 1.02 µM (active) | 0.468 µM (active) | 0.168 µM (active) | – | 0.214 µM (active) | 0.923 µM (active) | 0.65 µM (active) | 0.662 µM (active) | – | 0.251 µM (active) | 0.406 µM (active) | 1.61 µM (inactive) | 0.367 µM (active) | 1.55 µM (inactive) | 0.789 µM (active) | 0.612 µM (active) | 0.144 µM (active) | 0.51 µM (active) | 4.41 µM (inactive) | 0.608 µM (active) |
| Cc1ccc(S(=O)(=O)NN=C2C(C)(C)CC2(C)C)cc1 | > 100 µM (inactive) | > 100 µM (inactive) | > 100 µM (inactive) | > 100 µM (inactive) | 76.2 µM (inactive) | > 100 µM (inactive) | > 100 µM (inactive) | > 100 µM (inactive) | > 100 µM (inactive) | > 100 µM (inactive) | > 100 µM (inactive) | > 100 µM (inactive) | – | > 100 µM (inactive) | > 100 µM (inactive) | > 100 µM (inactive) | > 100 µM (inactive) | > 100 µM (inactive) | > 100 µM (inactive) | – |
| COc1cc2c(c(OC)c1OC)-c1ccc(SC)c(=O)cc1C(CC(=O)Oc1cccc([N+](=O)[O-])c1)C2 (stereo not drawn) | 3.38 µM (inactive) | 0.161 µM (active) | 0.255 µM (active) | 3.09 µM (inactive) | 0.344 µM (active) | 0.412 µM (active) | – | 0.36 µM (active) | 0.764 µM (active) | 0.45 µM (active) | 0.493 µM (active) | – | 0.647 µM (active) | 0.139 µM (active) | 0.342 µM (active) | 0.263 µM (active) | 4.62 µM (inactive) | 0.4 µM (active) | > 90.8 µM (inactive) | 0.459 µM (active) |
| Cc1ccc(S(=O)(=O)CC2CCCn3c2c(C#N)c2ccccc23)cc1 (stereo not drawn) | > 100 µM (inactive) | > 100 µM (inactive) | – | > 100 µM (inactive) | > 100 µM (inactive) | > 100 µM (inactive) | > 100 µM (inactive) | – | > 100 µM (inactive) | – | > 100 µM (inactive) | > 100 µM (inactive) | > 100 µM (inactive) | > 100 µM (inactive) | > 100 µM (inactive) | > 100 µM (inactive) | > 100 µM (inactive) | > 100 µM (inactive) | > 100 µM (inactive) | – |
| CN(CCN(C)C(=S)NN)C(=S)NN | > 100 µM (inactive) | > 100 µM (inactive) | > 100 µM (inactive) | – | – | > 100 µM (inactive) | > 100 µM (inactive) | > 100 µM (inactive) | – | > 100 µM (inactive) | > 100 µM (inactive) | > 100 µM (inactive) | > 100 µM (inactive) | – | > 100 µM (inactive) | – | > 100 µM (inactive) | > 100 µM (inactive) | – | > 100 µM (inactive) |
| O=S(=O)(Cc1ccccc1)SCc1ccccc1 | 30.2 µM (inactive) | 17.8 µM (inactive) | 5.07 µM (inactive) | 18.5 µM (inactive) | 4.91 µM (inactive) | 14.3 µM (inactive) | – | 27.3 µM (inactive) | 24.5 µM (inactive) | 27.6 µM (inactive) | 10.7 µM (inactive) | > 74 µM (inactive) | 13.3 µM (inactive) | 25.8 µM (inactive) | 24.7 µM (inactive) | 18.3 µM (inactive) | 33.6 µM (inactive) | 4.37 µM (inactive) | > 48.1 µM (inactive) | 10.9 µM (inactive) |
| c1ncn(C23C4C5C6C4C2C6C53)n1 (stereo not drawn) | > 100 µM (inactive) | > 100 µM (inactive) | > 100 µM (inactive) | – | > 100 µM (inactive) | – | > 100 µM (inactive) | – | > 100 µM (inactive) | > 100 µM (inactive) | > 100 µM (inactive) | > 100 µM (inactive) | > 100 µM (inactive) | – | > 100 µM (inactive) | > 100 µM (inactive) | > 100 µM (inactive) | > 100 µM (inactive) | > 100 µM (inactive) | > 100 µM (inactive) |
| CC1(C)C[C@H](O)[C@H](O)[C@]23C(=O)O[C@H](O)[C@H]2C(C=O)=CC[C@@H]13 | > 100 µM (inactive) | > 100 µM (inactive) | > 100 µM (inactive) | – | > 100 µM (inactive) | – | > 100 µM (inactive) | > 100 µM (inactive) | > 100 µM (inactive) | > 100 µM (inactive) | > 100 µM (inactive) | – | > 100 µM (inactive) | > 100 µM (inactive) | > 100 µM (inactive) | > 100 µM (inactive) | > 100 µM (inactive) | > 100 µM (inactive) | > 100 µM (inactive) | > 100 µM (inactive) |
| COc1ccc(-n2nnc(C(N)=O)c2O)cc1 | > 100 µM (inactive) | > 100 µM (inactive) | > 100 µM (inactive) | – | > 100 µM (inactive) | > 100 µM (inactive) | > 100 µM (inactive) | 91 µM (inactive) | > 100 µM (inactive) | > 100 µM (inactive) | > 100 µM (inactive) | > 100 µM (inactive) | > 100 µM (inactive) | > 100 µM (inactive) | > 100 µM (inactive) | – | > 100 µM (inactive) | > 100 µM (inactive) | – | > 100 µM (inactive) |
| CC(C)[C@H]1NC(=O)[C@H]2N=C(S[C@H]2C)[C@@H]2CCCN2C(=O)[C@H](Cc2ccccc2)NC(=O)[C@@H]2CSC(=N2)[C@@H](Cc2ccccc2)NC(=O)[C@@H]2CSC1=N2 | 27.5 µM (inactive) | 10.7 µM (inactive) | 0.0912 µM (active) | – | 4.71 µM (inactive) | 25.7 µM (inactive) | > 50 µM (inactive) | > 50 µM (inactive) | 21 µM (inactive) | – | 12.2 µM (inactive) | > 50 µM (inactive) | 7.62 µM (inactive) | 15.9 µM (inactive) | 30.3 µM (inactive) | 22.3 µM (inactive) | 24.2 µM (inactive) | 18.1 µM (inactive) | 21.7 µM (inactive) | 5.65 µM (inactive) |
| O=C1N[C@H]2c3c(Cl)sc(Cl)c3/C(=N/O)[C@H]2O1 | > 100 µM (inactive) | > 100 µM (inactive) | 18.7 µM (inactive) | – | 75.3 µM (inactive) | > 100 µM (inactive) | > 100 µM (inactive) | > 100 µM (inactive) | – | 76.4 µM (inactive) | – | > 100 µM (inactive) | > 100 µM (inactive) | > 100 µM (inactive) | – | 88.1 µM (inactive) | > 100 µM (inactive) | > 100 µM (inactive) | > 100 µM (inactive) | > 100 µM (inactive) |
| Cc1ccc(NC(=O)C(=O)Cc2cc[n+]([O-])cc2)cc1 | > 100 µM (inactive) | > 100 µM (inactive) | > 100 µM (inactive) | > 100 µM (inactive) | > 100 µM (inactive) | > 100 µM (inactive) | – | > 100 µM (inactive) | > 100 µM (inactive) | > 100 µM (inactive) | > 100 µM (inactive) | > 100 µM (inactive) | > 100 µM (inactive) | > 100 µM (inactive) | > 100 µM (inactive) | > 100 µM (inactive) | > 100 µM (inactive) | > 100 µM (inactive) | > 100 µM (inactive) | > 100 µM (inactive) |
